These results are taken from patent publication EP1171440B1, “SUBSTITUTED-3-CYANO-[1.7],[1.5], AND [1.8]-NAPHTHYRIDINE INHIBITORS OF TYROSINE KINASES” (Wyeth Holdings Corporation, priority 1999, dated 2000).

For orientation: IC50 means the concentration at which inhibition is half-maximal. The term inhibition denotes how much of the control response was suppressed.

Each structure is given as a SMILES string. Values after ≈ are worked out from the molar mass of the structure shown. Read-outs that look alike come from different tables or passages of the source.

Experiment [1] has as its system Her2Neu. The experiment in a line: Inhibition of Cancer Cell Growth as Measured by Cell Number (Sulforhodamine B). Format: cell-based. The following applies: Her2Neu (3T3 line transfected with Her2 receptor kinase); 48 hours exposure. How it is done: (§1) Human tumor cell lines were plated in 96-well plates (250 µl/well, 1-6 x 10^4 cells/ml) in RPMI 1640 medium, containing 5% FBS (Fetal Bovine Serum). […] After 48 hours exposure to test compounds, cells were fixed with trichloroacetic acid, and stained with Sulforhodamine B. After washing with trichloroacetic acid, bound dye was solubilized in 10 mM Tris base and optical density was determined using a plate reader. Under conditions of the assay the optical density is proportional to the number of cells in the well. IC50s (concentrations causing 50% inhibition of cell growth) were determined from the growth inhibition plots. The test procedure is described in details by Philip Skehan et. al, J.Natl. Canc. Inst., 82, 1107-1112 (1990). […] Information about some of the cell lines used in these test procedures is available from the American […]: Cell Lines and Hybridomas, 1994 Reference Guide, 8th Edition. The Her2Neu cell line is a 3T3 line that has bbeen transfected with Her2 receptor kinase.

Experiment [2] has as its system 3T3. Described as above. Format: cell-based. The method, then: as §1
Experiment [3] concerns the target T1, EGF-R Kinase (recombinant enzyme) (Homo sapiens, UniProt P00533).
T1 construct: containing the EGFR cDNA encoding amino acids 645 - 1186 preceded by Met-Ala-(His)6; made in house; host or cells: Sf9 insect cells infected with recombinant baculovirus vHcEGFR52
Nature of the experiment: Inhibition of Epidermal Growth Factor Receptor Kinase (EGF-R) using recombinant enzyme, RR-SRC peptide phosphorylation with 33P-ATP. The format is biochemical. How it is done: Representative test compounds were evaluated for their ability to inhibit the phosphorylation of the tyrosine residue of a peptide substrate catalyzed by the enzyme epidermal growth factor receptor kinase. […] The enzyme used in this assay is the His-tagged cytoplasmic domain of EGFR. A recombinant baculovirus (vHcEGFR52) was constructed containing the EGFR cDNA encoding amino acids 645 - 1186 preceded by Met-Ala-(His)6 . Sf9 cells in 100 mm plates were infected at an moi of 10 pfu/cell and cells were harvested 48 h post infection. A cytoplasmic extract was prepared using 1% Triton X-100 and applied to Ni-NTA column. After washing the column with 20 mM imidazole, HcEGFR was eluted with 250 mM imidazole (in 50 mM Na2HPO4, pH 8.0, 300 mM NaCl). Fractions collected were dialyzed against 10 mM HEPES, pH 7.0, 50 mM NaCl, 10% glycerol, 1ug/mL antipain and leupeptin and 0.1 mM Pefabloc SC. The protein was frozen in dry ice/methanol and stored -70° C.
Test compounds were made into 10 mg/mL stock solutions in 100% dimethylsulfoxide (DMSO). Prior to experiment, stock solutions were diluted to 500 uM with 100% DMSO and then serially diluted to the desired concentration with HEPES buffer (30 mM HEPES pH 7.4).
For the enzyme reaction, 10 uL of each inhibitor (at various concentrations) were added to each well of a 96-well plate. To this was added 3 uL of enzyme (1:10 dilution in 10mM HEPES, pH 7.4 for final conc. of 1:120). This was allowed to sit for 10 min on ice and was followed by the addition of 5 ul peptide (80 uM final conc.), 10ul of 4X Buffer (Table A), 0.25 uL ^33P-ATP and 12 uL H2O. The reaction was allowed to run for 90 min at room temperature and was followed by spotting the entire volume on to precut P81 filter papers. The filter discs were washed 2X with 0.5% phosphoric acid and radioactivity was measured using a liquid scintillation counter. Table A
The IC50 is the concentration of test compound needed to reduce the total amount of phosphorylated substrate by 50%. The % inhibition of the test compound was determined for at least three different concentrations and the IC50 value was evaluated from the dose response curve. […] CPM(control) is in units of counts per minute and was a number expressing the amount of radiolabeled ATP (γ-^33P) incorporated into the RR-SRC peptide substrate by the enzyme after 90 minutes at room temperature in the absence of test compound as measured by liquid scintillation counting. The CPM values were corrected for the background counts produced by ATP in the absence of the enzymatic reaction. Where it was possible to determine an IC50 value, this is reported in TABLE 1 otherwise the % inhibition at 0.5 µM concentration of test compound is shown in TABLE 1.

For experiment [4], the system named is SW620. Nature of the experiment: Inhibition of Cancer Cell Growth as Measured by Cell Number (Sulforhodamine B). The following applies: Homo sapiens, SW-620, 48 hours exposure, read-out: IC50. The format is cell-based, Human. The method, then:
(§2) After 48 hours exposure to test compounds, cells were fixed with trichloroacetic acid, and stained with Sulforhodamine B. After washing with trichloroacetic acid, bound dye was solubilized in 10 mM Tris base and optical density was determined using a plate reader. Under conditions of the assay the optical density is proportional to the number of cells in the well. […] The test procedure is described in details by Philip Skehan et. al, J.Natl. Canc. […] The Her2Neu cell line is a 3T3 line that has bbeen transfected with Her2 receptor kinase.

The test system of experiment [5] is A431. The description is as above. The format is cell-based, Human. The following applies: 48 hours exposure. How it is done: as §2
Experiment [6] relates to MDA435. The description is as above. The format is cell-based, Human. The following applies: Homo sapiens, MDA435, 48 h, 48 hours exposure, read-out: IC50. How it is done: as §2
In experiment [7] the test system is SKBR3. The experiment is described as above. The format is cell-based, Human. The following applies: Homo sapiens, SK-BR-3, 48 hours exposure, read-out: IC50. The method, then:
as §2

Experiment [8] relates to MCF7. Described as above. The format is cell-based. The following applies: Homo sapiens, 48 hours exposure. The method, then:
as §1

The subject of experiment [9] is A2780DDP. Described as above. Format: cell-based, Human. The following applies: Homo sapiens, 48 h, 48 hours exposure, read-out: IC50. The method, then:
as §2

Experiment [10] has as its system A2780S. The description is as above. Format: cell-based, Human. The following applies: Homo sapiens, 48 h, 48 hours exposure, read-out: IC50. The method, then: as §2
In experiment [11] the test system is LOX. The experiment is described as above. Format: cell-based, Human. The following applies: Homo sapiens, 48 hours exposure, read-out: IC50. How it is done:
as §2

Experiment [12] addresses T2, KDR; the catalytic domain of the VEGF receptor (Homo sapiens, UniProt P35968).
T2 construct: KDR; the catalytic domain of the VEGF receptor
Nature of the experiment: Inhibition of Kinase insert Domain containing Receptor (KDR), radioactive substrate phosphorylation. Format: biochemical. The following applies: pH 7.2; substrate copolymer of glutamic acid and tyrosine, E:Y = 4:1. The method, then: In this standard pharmacological test procedure, KDR protein is mixed, in the presence or absence of an inhibitor compound, with a substrate peptide to be phosphorylated (a copolymer of glutamic acid and tyrosine, E:Y = 4:1) and other cofactors such as Mg^++ and sodium vanadate (a protein tyrosine phosphatase inhibitor) in an appropriate buffer to maintain pH (7.2). ATP and a radioactive tracer (either P^32- or P^33- labeled ATP) is then add to initiate phosphorylation. After incubation, the radioactive phosphate associated with the acid-insoluble fraction of the assay mixture is then quantified as reflection of substrate phosphorylation. This radioactive format was used to identify inhibitors of KDR tyrosine kinase activity where the IC50 is the concentration of drug that inhibits substrate phosphorylation by 50%.

[13] abbreviates: recombinant His-tagged cytoplasmic domain of EGFR, RR-SRC peptide, 90 min at room temperature, read-out: IC50.
Where [14] appears, read: Homo sapiens, A-431, 48 h, read-out: IC50.

T1 sequence (P00533 669-1210): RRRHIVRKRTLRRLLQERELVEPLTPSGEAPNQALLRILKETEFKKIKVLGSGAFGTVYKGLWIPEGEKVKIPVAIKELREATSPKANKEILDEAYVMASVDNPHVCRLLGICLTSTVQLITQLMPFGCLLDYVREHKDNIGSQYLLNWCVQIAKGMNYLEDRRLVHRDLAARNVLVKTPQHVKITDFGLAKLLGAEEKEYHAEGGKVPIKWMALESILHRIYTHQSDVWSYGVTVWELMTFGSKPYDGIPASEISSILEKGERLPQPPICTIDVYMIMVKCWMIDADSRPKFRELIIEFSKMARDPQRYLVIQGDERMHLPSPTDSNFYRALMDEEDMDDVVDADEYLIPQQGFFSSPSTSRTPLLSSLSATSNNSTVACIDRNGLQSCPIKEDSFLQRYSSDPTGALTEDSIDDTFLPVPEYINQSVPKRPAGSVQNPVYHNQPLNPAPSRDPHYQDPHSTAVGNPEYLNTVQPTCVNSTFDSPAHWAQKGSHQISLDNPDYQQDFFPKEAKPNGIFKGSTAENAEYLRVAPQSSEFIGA
T2 sequence (P35968 834-1162 limits assumed): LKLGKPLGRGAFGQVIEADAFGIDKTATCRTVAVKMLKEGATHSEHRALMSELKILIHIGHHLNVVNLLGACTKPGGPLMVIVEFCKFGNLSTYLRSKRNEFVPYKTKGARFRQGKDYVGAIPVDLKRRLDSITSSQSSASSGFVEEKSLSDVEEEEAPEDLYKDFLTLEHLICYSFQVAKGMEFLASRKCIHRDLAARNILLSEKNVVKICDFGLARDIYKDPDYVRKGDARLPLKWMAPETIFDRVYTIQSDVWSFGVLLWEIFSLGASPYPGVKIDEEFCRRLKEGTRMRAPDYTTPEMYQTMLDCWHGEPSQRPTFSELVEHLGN

For the molecule `CN(C)CCOc1cc2c(Nc3ccc(F)c(Cl)c3)c(C#N)cnc2cn1` [Example 74, 4-(3-Chloro-4-fluoro-phenylamino)-6-(2-dimethylamino-ethoxy)-[1.7]naphthyridine-3-carbonitrile], the 50% inhibitory concentration (IC50) in [1] is above 5 µg/mL; in experiment [2] (Mus musculus, NIH3T3, 48 hours exposure, read-out: IC50), 4.48 µg/mL (≈ 11.6 µM); in experiment [3] (setting [13]), 1000 nM; in [4], above 5 µg/mL; in experiment [5] (setting [14]), 2.23 µg/mL (≈ 5.77 µM); in [6], above 5 µg/mL. Further, the IC50 in experiment [7] amounted to 4.63 µg/mL (≈ 12 µM). The inhibition at 0.5 µM in [3] (0.5 µM concentration of test compound, read-out: % Inhibition @ 0.5) is 31.3%.
As for `CC#CC(=O)Nc1cc2c(Nc3cccc(Br)c3)c(C#N)cnc2cn1` [Example 61, But-2-ynoic acid, [4-(3-bromo-phenylamino)-3-cyano-[1.7]-naphthyridin-6-yl]-amide], the IC50 in [8] came out at 0.4 µg/mL (≈ 0.985 µM); in experiment [3] (setting [13]) it was 20 nM; in [9], 0.13 µg/mL (≈ 0.32 µM); in [4], 0.17 µg/mL (≈ 0.418 µM); in [10], 0.06 µg/mL (≈ 0.148 µM); in experiment [5] (setting [14]), 0.23 µg/mL (≈ 0.566 µM). Further, the half-inhibitory concentration (IC50) in [6] was determined as 0.88 µg/mL (≈ 2.17 µM); in experiment [7] it was 0.12 µg/mL (≈ 0.295 µM); in experiment [11] it was 0.07 µg/mL (≈ 0.172 µM).
Regarding `CNc1cc2c(Nc3cccc(Br)c3)c(C#N)cnc2cn1` [Example 64, 4-(3-Bromo-phenylamino)-6-methylamino-[1.7]naphthyridine-3-carbonitrile], the IC50 in [8] came out at 3.87 µg/mL (≈ 10.9 µM); in experiment [3] (setting [13]), 6 nM; in experiment [4], 4.62 µg/mL (≈ 13 µM); in [5] it was 0.209 µg/mL (≈ 0.59 µM); in experiment [5] (setting [14]), 0.31 µg/mL (≈ 0.875 µM); in experiment [7] it was 1.88 µg/mL (≈ 5.3 µM). In [11], the IC50 was found to be 3.6 µg/mL (≈ 10.2 µM).
Consider `CN(C)CC=CC(=O)Nc1cc2c(Nc3cccc(Br)c3)c(C#N)cnc2cn1` [Example 62, 4-Dimethylamino-but-2-enoic acid, [4-(3-bromo-phenylamino)-3-cyano-[1.7]naphthyridin-6-yl]-amide], for which the concentration for half-maximal inhibition (IC50) was determined as 0.2716 µg/mL (≈ 0.602 µM) in [2] (48 hours exposure); 0.373 µg/mL (≈ 0.826 µM) in experiment [2] (Mus musculus, NIH3T3, 48 h, 48 hours exposure, read-out: IC50); 5 nM in experiment [3]; 0.356 µg/mL (≈ 0.789 µM) in [4]; 0.088 µg/mL (≈ 0.195 µM) in experiment [5] (setting [14]); 0.464 µg/mL (≈ 1.03 µM) in experiment [6]. In addition, in experiment [7], the IC50 was 0.0357 µg/mL (≈ 0.079 µM). Moreover, in [3] (read-out: % Inhibition @ 0.5 (µM)), the inhibition at 0.5 µM is 97.4%.
`Cc1ccc(Nc2c(C#N)cnc3cnc(F)cc23)cc1O` [Example 66, 6-Fluoro-4-(3-hydroxy-4-methyl-phenylamino)-[1.7]naphthyridine-3-carbonitrile]: the IC50 in experiment [12] worked out at 33.9 µg/mL (≈ 115 µM).
